The test system of experiment [1] is Ae. aegypti Isla mujeres strain (metabolically pyrethroid resistant). The experiment in a line: Toxicity assay on treated netting (Example 7), Isla mujeres strain. The experiment is classed as in vivo. The procedure: (§1) Several compounds were tested to determine their toxic effect on Ae. aegypti mosquitoes. Three mosquito strains were tested—Houston which is pyrethroid susceptible, That which is pyrethroid tolerant and Isla Mujer which is metabolically pyrethroid resistant.
(§2) The toxicity assay involved a single chamber to which treated netting was added. Twenty (20) mosquitoes were transferred to the chamber. After 1 hour, the number of knocked down mosquitoes was recorded and all mosquitoes were transferred to holding cartoons. The mosquitoes were given a 10% sucrose-soaked cotton ball and returned to the insectary. Mortaility was measured after 24 hours. A control assay using acetone-treated netting was used. Six replicates were performed at each treatment concentration.

The test system of experiment [2] is Ae. aegypti Houston strain (pyrethroid susceptible). As to the kind of experiment: Toxicity assay on treated netting (Example 7), Houston strain. The experiment is classed as in vivo. The procedure:
as §1, §2

Experiment [3] has as its system Ae. aegypti Thai strain (pyrethroid tolerant). The experiment in a line: Toxicity assay on treated netting (Example 7), Thai strain. The experiment is classed as in vivo. The procedure:
as §1, §2

In experiment [4] the test system is KDR Resisant An. Gambiae. As to the kind of experiment: Bottle toxicity assay (Example 8), knockdown resistant mosquitoes. The experiment is classed as in vivo, Anopheles gambiae. The note with it: for KDR Resisant An. Gambiae (% dead (SE)): Strain Tested F123. The procedure: (§3) Several compounds were tested to determine their toxic effect on knockdown resistant Anopheles gambiae mosquitoes and susceptible mosquitoes. Acetone and different amounts of pesticides were added to 250 ml bottles. In one bottle, only acetone was added as a control. The bottles were rotated in all directions while uncapped until all acetone was evaporated and the insecticide was coated onto the inside surfaces of the bottle. A number of knockdown resistant Anopheles gambiae mosquitoes were added to the bottle. The number of dead mosquitoes was recorded at 1 hour and 24 hours.

Experiment [5] has as its system Susceptible An. Gambiae. As to the kind of experiment: Bottle toxicity assay (Example 8), susceptible mosquitoes. The experiment is classed as in vivo, Anopheles gambiae. Conditions: Strain Tested F123. The procedure: as §3
Setting [6] is: Dose 0.25 nm/cm^2, Time 24 hours.
[7] abbreviates: Dose 2.5 nm/cm^2, Time 24 hours.
Where [8] appears, read: Dose 0.25 μg/bottle, Time 1 hour.
[9] abbreviates: Dose 0.25 μg/bottle, Time 24 hours.
[10] abbreviates: Dose 2.5 μg/bottle, Time 1 hour.
Setting [11] is: Dose 2.5 μg/bottle, Time 24 hours.
The mark [12] stands for this setting: Dose 0.025 nm/cm^2, Time 1 hour.
Where [13] appears, read: Dose 0.025 nm/cm^2, Time 24 hours.

On to `CC1(C)C(C=C(Cl)Cl)C1C(=O)OC(C#N)c1cccc(Oc2ccccc2)c1` (stereo not drawn) [Alpha-cypermethrin, alpha cypermethrin, reference compound], for which the “Isla mujeres (% dead (SE))” value is 96.66% in experiment [1] (Dose 0.25 nm/cm^2, Time 1 hour); 41.06% in experiment [1] (setting [6]); 100% in experiment [1] (Dose 2.5 nm/cm^2, Time 1 hour); 100% in experiment [1] (setting [7]). Further, the “Houston (% dead (SE))” value in experiment [2] (Dose 0.25 nm/cm^2, Time 1 hour) is 100%; in experiment [2] (setting [6]), 100%; in experiment [2] (Dose 2.5 nm/cm^2, Time 1 hour) it was 100%; in experiment [2] (setting [7]), 100%. Also, the “Thai (% dead (SE))” value is 100% in experiment [3] (Dose 0.25 nm/cm^2, Time 1 hour); 83.9% in experiment [3] (setting [6]); 100% in experiment [3] (Dose 2.5 nm/cm^2, Time 1 hour); 100% in experiment [3] (setting [7]).

On to `CC1(C)C(C=C(Cl)Cl)C1C(=O)OCc1cccc(Oc2ccccc2)c1` (centres unmarked) [Permethrin, permethrin, reference compound], for which the “Isla mujeres (% dead (SE))” value in experiment [1] (Dose 0.25 nm/cm^2, Time 1 hour) was determined as 87.49%; in experiment [1] (setting [6]), 14.68%; in experiment [1] (Dose 2.5 nm/cm^2, Time 1 hour) it was 100%; in experiment [1] (setting [7]), 100%. Moreover, the “Houston (% dead (SE))” value in experiment [2] (Dose 0.25 nm/cm^2, Time 1 hour) worked out at 100%; in experiment [2] (setting [6]), 100%; in experiment [2] (Dose 2.5 nm/cm^2, Time 1 hour) it was 100%; in experiment [2] (setting [7]) it was 100%. Further, the “KDR Resisant An. Gambiae (% dead (SE))” value in experiment [4] (setting [8]) is recorded as 0%; in experiment [4] (setting [9]) it was 24%; in experiment [4] (setting [10]), 25%; in experiment [4] (setting [11]), 78%. For the same compound, in experiment [4] (summary of Table 3), the “effectiveness against knockdown resistant strains” value is recorded as “less effective”. Moreover, the “Susceptible An. Gambiae (% dead (SE))” value in experiment [5] (setting [8]), in experiment [5] (setting [9]), in experiment [5] (setting [10]) and in experiment [5] (setting [11]) was 100% each time.

With `CC1(C)[C@H](C=C(Cl)Cl)[C@H]1C(=O)OCc1c(F)c(F)cc(F)c1F` [Transfluthrin, transfluthrin, reference compound], the “Isla mujeres (% dead (SE))” value is on record as 100% in experiment [1] (setting [12]); 1.6% in experiment [1] (setting [13]); 100% in experiment [1] (Dose 0.25 nm/cm^2, Time 1 hour); 100% in experiment [1] (setting [6]); 100% in experiment [1] (Dose 2.5 nm/cm^2, Time 1 hour); 100% in experiment [1] (setting [7]). Moreover, the “Houston (% dead (SE))” value was 100% in experiment [2] (setting [12]); 100% in experiment [2] (setting [13]); 100% in experiment [2] (Dose 0.25 nm/cm^2, Time 1 hour); 100% in experiment [2] (setting [6]); 100% in experiment [2] (Dose 2.5 nm/cm^2, Time 1 hour); 100% in experiment [2] (setting [7]). In addition, the “Thai (% dead (SE))” value in experiment [3] (setting [12]) amounted to 100%; in experiment [3] (setting [13]) it was 91.7%; in experiment [3] (Dose 0.25 nm/cm^2, Time 1 hour), 100%; in experiment [3] (setting [6]) it was 100%; in experiment [3] (Dose 2.5 nm/cm^2, Time 1 hour) it was 100%; in experiment [3] (setting [7]) it was 100%.

The record behind these values is patent US20150038707A1, “PROCESS FOR MAKING CGRP RECEPTOR ANTAGONISTS” (Merck Sharp & Dohme Corp., priority 2012, published 2015).
